Reference: patent US10106577B2, “Agonists of neurotrophin receptors and their use as medicaments” (BIONURE FARMA, S.L., priority 2010, dated 2018)

Key:
[1] = tested on: JNK; assay: Luminex signalling assay in SH-SY5Y; type: cell-based, human; details: G79 100 ng/ml and 20 μg/ml, BDNF 20 ng/ml; 30 min, 1 h, 2 h, 6 h
Excerpt: (§1) The human neuroblastoma cell line SH-SY5Y was used to perform Luminex signalling assays using the 10-Plex MAPK/SAPK Signaling Kit-Phosphoprotein (Millipore). This cell line expresses the TrkB receptor and the MAPK/SAPK signalling pathway is typically activated by the tyrosinkinase receptors. The phosphoprotein antibodies included into the kit are the following: ERK/MAP kinase (Thr185/Tyr187); STAT-1 (Tyr701); JNK (Thr183/Tyr185); MEK-1 (Ser212); ATF-2 (Thr69/71); p53 (Ser15); HSP27 (Ser78); c-Jun (Ser73); p38 (Thr180/Tyr182), p70 S6 kinase (Thr412); IkBα (Ser32) (purchased from Millipore).
(§2) The cells were propagated and then seeded into 24-well plates (30.000 cell/well). After 24 hours, the cells were treated with two different concentrations of NGF-receptor agonist G79: 100 ng/ml and 20 μg/ml. After adding G79 into the medium, the cells were collected in the lysis buffer of the kit at the following time points: 30 min, 1 h, 2 h, and 6 h. The assay was performed in this way to assess both time and dose effects comparing the treated samples with the untreated cells used as negative controls (unstimulated SH-SY5Y cells). BDNF was used as positive control at the concentration 20 ng/ml, which is the best working concentration known in literature. In the Luminex plate, each sample was added into a well in duplicate. After adding all the samples, the specific positive and negative controls of phosphorilation, included in the Luminex kit, were added. The assay buffer was also added in duplicate, as a background controls.
(§3) In the circles are the activated factors, while in the grey circles are the tested factors. Its effects of the SY-SY5Y cell line in the phosphorilation of several pathways were assessed using xMAP assay from Luminex. […] The levels of activation are expressed as Median Fluorescence Intensity (MFI).

[2] = tested on: STAT-1; assay: Luminex signalling assay in SH-SY5Y; type: cell-based, human; details: G79 100 ng/ml and 20 μg/ml, BDNF 20 ng/ml; 30 min, 1 h, 2 h, 6 h
Excerpt: as §1, §2, §3

[3] = tested on: HSP-27; assay: Luminex signalling assay in SH-SY5Y; type: cell-based, human; details: G79 100 ng/ml and 20 μg/ml, BDNF 20 ng/ml; 30 min, 1 h, 2 h, 6 h
Excerpt: as §1, §2, §3

[4] = tested on: ATF-2; assay: Luminex signalling assay in SH-SY5Y; type: cell-based, human; details: G79 100 ng/ml and 20 μg/ml, BDNF 20 ng/ml; 30 min, 1 h, 2 h, 6 h
Excerpt: as §1, §2, §3

[5] = biological target: T1, TrkB (Rattus norvegicus, UniProt Q63604); assay: Western blot analysis of receptor phosphorilation in PC12 cells; type: cell-based; details: G79 100 ng/ml; 5-15-30-60 min
T1 construct: endogenous in cells; host or cells: PC12
T1 sequence (Q63604 32-821): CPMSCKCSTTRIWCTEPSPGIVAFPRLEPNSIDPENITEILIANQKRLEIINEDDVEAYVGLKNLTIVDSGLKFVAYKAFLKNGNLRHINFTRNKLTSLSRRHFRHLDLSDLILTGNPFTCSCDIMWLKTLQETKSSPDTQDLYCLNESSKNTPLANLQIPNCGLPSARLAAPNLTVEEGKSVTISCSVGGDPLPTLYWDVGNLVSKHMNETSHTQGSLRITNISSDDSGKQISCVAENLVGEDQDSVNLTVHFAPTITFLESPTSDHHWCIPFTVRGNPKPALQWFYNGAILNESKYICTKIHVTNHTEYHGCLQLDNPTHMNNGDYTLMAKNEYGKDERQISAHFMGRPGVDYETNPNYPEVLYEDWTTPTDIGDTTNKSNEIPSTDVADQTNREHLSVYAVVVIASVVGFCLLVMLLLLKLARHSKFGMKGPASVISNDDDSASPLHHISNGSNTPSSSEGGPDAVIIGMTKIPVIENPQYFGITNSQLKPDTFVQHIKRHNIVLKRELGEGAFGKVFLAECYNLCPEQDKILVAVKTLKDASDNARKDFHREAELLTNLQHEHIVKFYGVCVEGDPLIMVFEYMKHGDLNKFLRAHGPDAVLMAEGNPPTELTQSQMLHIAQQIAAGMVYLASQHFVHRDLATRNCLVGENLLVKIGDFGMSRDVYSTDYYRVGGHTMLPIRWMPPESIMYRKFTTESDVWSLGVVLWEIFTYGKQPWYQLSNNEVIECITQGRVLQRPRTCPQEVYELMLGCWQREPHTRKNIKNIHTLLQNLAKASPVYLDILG
Protocol: (§4) Neurotrophin receptors TrkA and TrkB activation (phosphorilation) was evaluated by Western-blot as follows: PC12 cell growing on 24-well plates were treated with low serum medium (0.5% FBS) to reduce the basal level of phosphorilation. After 24 h, the PC12 cells were treated with G79 (100 ng/ml), then recovered and lysated in 300 μl of ice-cold lysis buffer (Sigma Aldrich) at 5-15-30-60 min. After sonication, cell debris were removed by centrifugation (14000 rpm for 10 min) and equal amount of supernatant (30-35 μg/well) were loaded and separated by 10% polyacrilamide gel electrophoresis (PAGE) and then electrobloted onto PVDF membranes. Membranes were blocked by 5% nonfat milk and then sequentially incubated with the primary antibodies [phospho-TrkA, Tyr490 (Cell Signaling) or phospho-TrkB, Tyr515 (NovusBiological)] 1:1000 over-night and the secondary antibodies 1:2000, for 1 h at room temperature. Blots were processed for visualization by chemiluminescence system (Amersham) and exposed to Kodak film to visualize the fluorographic image.

[6] = biological target: T2, TrkA (Rattus norvegicus, UniProt P35739); assay: as above; type: cell-based; details: G79 100 ng/ml; 5-15-30-60 min
T2 construct: PC12 cells expressing both TrkA and p75 receptors were cultivated in normal growth medium; endogenous in cells; host or cells: PC12
T2 sequence (P35739 33-799): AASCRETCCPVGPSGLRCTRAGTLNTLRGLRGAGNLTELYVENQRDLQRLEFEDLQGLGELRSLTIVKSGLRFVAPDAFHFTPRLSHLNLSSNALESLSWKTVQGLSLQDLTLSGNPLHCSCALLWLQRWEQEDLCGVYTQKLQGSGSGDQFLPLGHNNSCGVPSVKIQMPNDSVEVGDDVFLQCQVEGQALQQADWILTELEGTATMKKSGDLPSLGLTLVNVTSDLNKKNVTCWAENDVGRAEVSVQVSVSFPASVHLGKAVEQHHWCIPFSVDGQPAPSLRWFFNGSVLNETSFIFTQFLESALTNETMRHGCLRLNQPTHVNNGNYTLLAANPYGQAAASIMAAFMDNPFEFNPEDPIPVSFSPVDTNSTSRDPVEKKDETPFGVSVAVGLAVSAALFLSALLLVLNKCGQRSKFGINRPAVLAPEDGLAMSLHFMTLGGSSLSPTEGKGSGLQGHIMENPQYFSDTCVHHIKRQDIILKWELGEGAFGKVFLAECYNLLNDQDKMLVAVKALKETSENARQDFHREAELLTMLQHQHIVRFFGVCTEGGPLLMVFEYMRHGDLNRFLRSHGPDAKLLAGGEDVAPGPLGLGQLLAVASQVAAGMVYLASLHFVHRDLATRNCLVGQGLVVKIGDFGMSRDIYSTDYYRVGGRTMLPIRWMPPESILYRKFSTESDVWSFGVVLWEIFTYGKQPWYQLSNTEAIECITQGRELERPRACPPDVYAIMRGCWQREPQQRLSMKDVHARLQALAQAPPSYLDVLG
Protocol: as §4

[7] = tested on: retinal ganglion cells (RGC); assay: Glaucoma model, count of retinal ganglion cells; type: in vivo, Sprague Dawley rats
Protocol: 12 Sprague Dawley rats (4 months of age) were anesthetized with […] and subjected to hypertonic saline solution injection into the episcleral vein of the right eye. Intraocular pressure (IOP) was measured before the operation and was monitored one time a week using a TonoLab for 7 weeks. Treatment with G79 was begun one week after glaucoma induction by topical application at the conjunctive. Two different experiments were performed.
In the first experiment, G79 was dissolved into physiological solution and was used at two different concentration (200 μg/ml and 400 μg/ml). NGF was used as positive control (200 μg/ml) and the physiological solution, used to dissolve all the molecules, was subministered as placebo. The animals were divided into 4 groups (3 animals in each group): glaucoma-G79 200 μg/ml; glaucoma-G79 […]; glaucoma-NGF; glaucoma-placebo. The left eye was used as the control without glaucoma. In both experiments, seven weeks after glaucoma induction, animals were sacrificed by overdose of anaesthetic and their eyes were taken and fixed in 4% of PFA. The eyes were included in paraffin and cut into 20 μm sections to be used for histological studies (hematoxilin-eosin staining). The cell count of the number of retinal ganglion cells (RGC) was performed randomly in ten different fields for each eye.
Rats were injected with a hypertonic solution in the eye that induced high intraocular pressure for five weeks. Animals were treated with eye drops of NGF ([…]), G79 ([…]) or placebo every day for five weeks. Animals with glaucoma and treated with placebo (saline) have a significant decrease in the number of retinal ganglion cells compared with control.
In the second experiment, G79 at the concentration of 200 μg/ml was used. The objective of this second experiment was to compare the efficacy of G79 to Timolol, the most common therapy for glaucoma that works by decreasing the intraocular pressure. Also in this experiment, a combination treatment with G79 and Timolol was performed. […]

CC(C)CN(CC(=O)N(CCCN1CCCC1=O)CC(N)=O)C(=O)CNCCc1ccccc1F [Compound G79, [N-(2-(2′-Fluorophenyl)ethyl)glycyl]-[N-(2-methylpropyl)glycyl]-N-[3-(2′-oxopyrrolidinyl)propyl]glycinamide]
JNK phospho-activation (MFI) compared to unstimulated control [1]: significantly activated at 6 h after G79 treatment (both at 20 μg/ml and 100 ng/ml) | STAT-1 phospho-activation (MFI) compared to unstimulated control [2]: significantly activated at 6 h after G79 treatment (20 μg/ml) | HSP-27 phospho-activation (MFI) compared to unstimulated control [3]: significantly activated at 1 h after G79 treatment (both at 20 μg/ml and 100 ng/ml) | ATF-2 phospho-activation (MFI) compared to unstimulated control [4]: significantly activated at 6 h after G79 treatment (20 μg/ml) | TrkB phosphorilation (phospho-TrkB, Tyr515) [5]: phosphorilated already after 5 min | TrkA phosphorilation (phospho-TrkA, Tyr490) [6]: phosphorilated already after 5 min | protection of retinal ganglion cells (number of RGC vs glaucoma-placebo) ([7]; first experiment, eye drops, NGF 200, G79 200 and 400 μg/ml): significant protection of the ganglion cells | protection of RGCs by the combination treatment ([7]; second experiment, G79 200 μg/ml in combination with Timolol): did not exert additive effect in protecting RGCs
